Experimental findings from ChEMBL document CHEMBL1136538, “1,4-Dihydroxy-2,3-dioxatricyclo[8.4.0.0(4,9)]tetradecane and derivatives with in vitro activity against Plasmodium falciparum, Trypanasoma b brucei, Trypanasoma cruzi, and Leishmaniasis infantum” (Bioorg Med Chem Lett, 2003) are described below.

For one test, the system named is MRC5. Description: In vitro cytotoxicity against cell line MRC-5. It counts as functional, cell-based. As to conditions: Homo sapiens.
The next test deals with Trypanosoma cruzi. The test can be described thus: In vitro anti-protozoal parasite activity against Trypanosoma cruzi TC-1. It counts as functional, organism-based.
Another test deals with Plasmodium falciparum. Description: In vitro anti-protozoal activity against Plasmodium falciparum Ghana. It counts as functional, organism-based.
In the next test the test system is Leishmania infantum. The test can be described thus: In vitro anti-protozoal parasite activity against Leishmania infantum L1 strain. The class given is functional, organism-based.
A further test has as its system Trypanosoma brucei. The test can be described thus: In vitro anti-protozoal parasite activity against Trypanosoma brucei TB-1. The class given is functional, organism-based.

Each structure is given as a SMILES string.

Turning to `COC12CCCCC1C1CCCCC1(O)OO2` (stereo unspecified), the IC50 in the test with MRC5 was 8 µM; in the test on Trypanosoma cruzi, 8 µM; in the test with Plasmodium falciparum, 5 µM; in the test with Leishmania infantum it was above 32 µM; with Trypanosoma brucei, 16 µM.

`OC12CCCCC1C1CCCCC1(O)OO2` (stereo unspecified): the IC50 with MRC5 was 10 µM; with Trypanosoma cruzi it was 24 µM; in the test on Plasmodium falciparum, 0.1 µM; in the test on Leishmania infantum, above 32 µM; in the test with Trypanosoma brucei, 13 µM.

With `O=C(O)CCC(=O)OC12CCCCC1C1CCCCC1(O)OO2` (stereo unspecified), the IC50 was 13 µM in the test with MRC5; 13 µM in the test on Trypanosoma cruzi; 1 µM with Plasmodium falciparum; above 32 µM in the test with Leishmania infantum; 4 µM in the test with Trypanosoma brucei.

`O=C(O)CC(=O)OC12CCCCC1C1CCCCC1(O)OO2` (stereo unspecified): the IC50 was above 32 µM in the test with MRC5; above 32 µM in the test with Trypanosoma cruzi; 6 µM in the test with Plasmodium falciparum; above 32 µM in the test with Leishmania infantum; 10 µM in the test on Trypanosoma brucei.

For the compound `O=C(O)CCCCC(=O)OC12CCCCC1C1CCCCC1(O)OO2` (stereo unspecified), the IC50 in the test on MRC5 is above 32 µM; with Trypanosoma cruzi, 19 µM; in the test on Plasmodium falciparum it was above 32 µM; in the test with Leishmania infantum it was above 32 µM; in the test with Trypanosoma brucei it was 17 µM.

In turn, `CO[C@H]1O[C@@H]2O[C@@]3(C)CC[C@H]4[C@H](C)CC[C@@H]([C@H]1C)[C@@]24OO3` [ARTEMETHER] registered an IC50 with Plasmodium falciparum of 0.025 µM.

Consider `O=C(O)CCCC(=O)OC12CCCCC1C1CCCCC1(O)OO2` (stereo unspecified), for which the IC50 was above 32 µM in the test on MRC5; 15 µM with Trypanosoma cruzi; 19 µM in the test with Plasmodium falciparum; above 32 µM in the test with Leishmania infantum; 16 µM in the test on Trypanosoma brucei.

Consider `CC1CCCC2C3CCCC(C)C3(O)OOC12O` (stereo unspecified), for which the IC50 in the test with MRC5, in the test with Trypanosoma cruzi, in the test on Plasmodium falciparum and with Leishmania infantum was above 32 µM throughout.

Regarding `Cc1ccc(C(=O)Nc2ccc(S(=O)(=O)O)c3cc(S(=O)(=O)O)cc(S(=O)(=O)O)c23)cc1NC(=O)c1cccc(NC(=O)Nc2cccc(C(=O)Nc3cc(C(=O)Nc4ccc(S(=O)(=O)O)c5cc(S(=O)(=O)O)cc(S(=O)(=O)O)c45)ccc3C)c2)c1` [SURAMIN HEXASODIUM], in the test on Trypanosoma brucei, the IC50 is 0.043 µM.
